Experimental data published in patent US11173145B2, “Compounds useful as inhibitors of indoleamine 2,3-dioxygenase and/or tryptophan dioxygenase” (Board of Regents, The University of Texas System, priority 2017, dated 2021).

Molecular target: T1, IDO1 (Homo sapiens, UniProt P14902)
T1 construct: endogenous in cells; host or cells: HeLa cells (ATCC), IFNgamma-induced
Test: IDO1 cell-based assay (HeLa cells, IFNgamma-induced, N-formylkynurenine/L-tryptophan by RFMS)
Details: 10 ng/mL IFNgamma, 24 hours
In short: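 HeLa cells stimulated with 10 ng/mL IFNgamma and exposed to compound (0.5% DMSO final) for 24 h at 37 °C. Conditioned media deproteinized, then N-formylkynurenine and L-tryptophan quantified by RapidFire MS with deuterated tryptophan internal standard; IC50 by curve fitting. Viability checked by CellTiter-Glo.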

T1 sequence (P14902 whole entry): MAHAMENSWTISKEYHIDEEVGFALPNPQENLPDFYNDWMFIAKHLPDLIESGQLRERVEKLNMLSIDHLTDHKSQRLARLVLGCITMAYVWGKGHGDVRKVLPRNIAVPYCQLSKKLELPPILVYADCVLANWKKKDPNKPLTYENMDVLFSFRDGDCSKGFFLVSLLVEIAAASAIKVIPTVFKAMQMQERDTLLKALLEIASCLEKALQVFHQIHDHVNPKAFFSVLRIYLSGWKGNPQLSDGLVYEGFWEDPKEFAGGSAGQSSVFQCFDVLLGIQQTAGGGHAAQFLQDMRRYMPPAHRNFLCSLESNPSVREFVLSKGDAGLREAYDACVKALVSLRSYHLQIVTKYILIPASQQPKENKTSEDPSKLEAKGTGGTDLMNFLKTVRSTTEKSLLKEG

SMILES | IC50
COC(=O)C(NC(=O)c1ccc(Cl)cc1)[C@H]1[C@@H]2C[C@@H](n3cc(C4CC4)nn3)C[C@@H]21 (stereo partly drawn) [Compound 169, methyl 2-(4-chlorobenzamido)-2-((1R,3s,5S,6r)-3-(4-cyclopropyl-1H-1,2,3-triazol-1-yl)bicyclo[3.1.0]hexan-6-yl)acetate] | 200 to 2000 nM
CCC(NC(=O)c1ccc(Cl)cc1)[C@H]1[C@@H]2C[C@@H](n3cnnc3C3CC3)C[C@@H]21 (stereo partly drawn) [Compound 172, 4-chloro-N-(1-((1R,3s, 5S, 6r)-3-(3-cyclopropyl-4H-1,2,4-triazol-4-yl)bicyclo[3.1.0]hexan-6-yl)propyl)benzamide] | 200 to 2000 nM
COCC(NC(=O)c1ccc(Cl)cc1)[C@H]1[C@@H]2C[C@@H](n3cc(C4CC4)nn3)C[C@@H]21 (stereo partly drawn) [Compound 173, 4-chloro-N-(1-((1R,3s,5S,6r)-3-(4-cyclopropyl-1H-1,2,3-triazol-1-yl)bicyclo[3.1.0]hexan-6-yl)-2-methoxyethyl)benzamide] | < 200 nM
CCC(NC(=O)c1ccc(Cl)cc1)[C@H]1[C@@H]2C[C@@H](n3ncc4ccncc43)C[C@@H]21 (stereo partly drawn) [Compound 174, N-(1-((1R,3s,5S,6r)-3-(1H-pyrazolo[3,4-c]pyridin-1-yl)bicyclo[3.1.0]hexan-6-yl)propyl)-4-chlorobenzamide] | < 200 nM
CCC(NC(=O)c1ccc(Cl)cc1)[C@H]1[C@@H]2C[C@@H](n3cc4cc(F)ccc4n3)C[C@@H]21 (stereo partly drawn) [Compound 207, 4-chloro-N-(1-((1R,3s,5S,6r)-3-(5-fluoro-2H-indazol-2-yl)bicyclo[3.1.0]hexan-6-yl)propyl)benzamide] | < 200 nM
C=C(C)c1cn([C@@H]2C[C@@H]3[C@H](C2)[C@H]3C(CC)NC(=O)c2ccc(Cl)cc2)nn1 (stereo partly drawn) [Compound 262, 4-chloro-N-(1-((1R,3S,5S,6r)-3-(4-(propen-2-yl)-1H-1,2,3-triazol-1-yl)bicyclo[3.1.0]hexan-6-yl)propyl)benzamide] | < 200 nM
CCC(NC(=O)c1ccc(Cl)cc1)[C@H]1[C@@H]2C[C@@H](Nc3c(F)cc(F)cc3[N+](=O)[O-])C[C@@H]21 (stereo partly drawn) [Compound 264, 4-chloro-N-(1-((1R,3s,5S,6r)-3-((2,4-difluoro-6-nitrophenyl)amino)bicyclo[3.1.0]hexan-6-yl)propyl)benzamide] | < 200 nM
CC[C@@H](NC(=O)c1ccc(Cl)cc1)[C@H]1[C@@H]2C[C@@H](c3ccnc4ccc(F)cc34)C[C@@H]21 [Compound 266, 4-chloro-N—((R)-1-((1R,3S,5S,6r)-3-(6-fluoroquinolin-4-yl)bicyclo[3.1.0]hexan-6-yl)propyl)benzamide] | < 200 nM
CCC(NC(=O)c1ccc(Cl)cc1)[C@H]1[C@@H]2C[C@@H](Nc3ccc(C#N)cc3[N+](=O)[O-])C[C@@H]21 (stereo partly drawn) [Compound 269, 4-chloro-N-(1-((1R,3s,5S,6r)-3-((4-cyano-2-nitrophenyl)amino)bicyclo[3.1.0]hexan-6-yl)propyl)benzamide] | < 200 nM
CCC(NC(=O)c1ccc(Cl)cc1)[C@H]1[C@@H]2C[C@@H](Nc3ccc(Cl)cc3[N+](=O)[O-])C[C@@H]21 (stereo partly drawn) [Compound 270, 4-chloro-N-(1-((1R,3s,5S,6r)-3-((4-chloro-2-nitrophenyl)amino)bicyclo[3.1.0]hexan-6-yl)propyl)benzamide] | < 200 nM
CCC(NC(=O)c1ccc(Cl)cc1)[C@H]1[C@@H]2C[C@@H](n3cnc4cc(Cl)ccc43)C[C@@H]21 (stereo partly drawn) [Compound 272, 4-chloro-N-(1-((1R,3s,5S,6r)-3-(5-chloro-1H-benzo[d]imidazol-1-yl)bicyclo[3.1.0]hexan-6-yl)propyl)benzamide] | < 200 nM
CC[C@@H](NC(=O)c1ccc(Cl)cc1)[C@H]1[C@@H]2C[C@@H](n3c(C(F)(F)F)nc4ccc(F)cc43)C[C@@H]21 [Compound 276, 4-chloro-N-((R)-1-((1R,3S,5S,6r)-3-(6-fluoro-2-(trifluoromethyl)-1H-benzo[d]imidazol-1-yl)bicyclo[3.1.0]hexan-6-yl)propyl)benzamide] | 200 to 2000 nM
CC[C@@H](NC(=O)c1ccc(C#N)cc1)[C@H]1[C@@H]2C[C@@H](c3ccnc4ccc(F)cc34)C[C@@H]21 [Compound 277, 4-cyano-N-((R)-1-((1R,3S,5S,6r)-3-(6-fluoroquinolin-4-yl)bicyclo[3.1.0]hexan-6-yl)propyl)benzamide] | < 200 nM
C[C@@H](NC(=O)c1ccc(C#N)cc1)[C@H]1[C@@H]2C[C@@H](c3ccnc4ccc(F)cc34)C[C@@H]21 [Compound 278, 4-cyano-N-((R)-1-((1R,3S,5S,6r)-3-(6-fluoroquinolin-4-yl)bicyclo[3.1.0]hexan-6-yl)ethyl)benzamide] | < 200 nM
CC[C@@H](NC(=O)c1ccc(Cl)cc1)[C@H]1[C@@H]2C[C@@H](c3ncnc4ccc(F)cc34)C[C@@H]21 [Compound 279, 4-chloro-N-((R)-1-((1R,3S,5S,6r)-3-(6-fluoroquinazolin-4-yl)bicyclo[3.1.0]hexan-6-yl)propyl)benzamide] | < 200 nM
O=C(NC[C@@H]1[C@H]2CN(c3ncnc4ccc(F)cc34)C[C@@H]12)c1ccc(Cl)cc1 [Compound 280, 4-chloro-N-(((1R,5S,6s)-3-(6-fluoroquinazolin-4-yl)-3-azabicyclo[3.1.0]hexan-6-yl)methyl)benzamide] | 200 to 2000 nM
CC(C(=O)Nc1ccc(Cl)cc1)[C@H]1[C@@H]2C[C@@H](n3cnc4cc(F)c(F)cc43)C[C@@H]21 (stereo partly drawn) [Compound 281, N-(4-chlorophenyl)-2-((1R,3s, 5S, 6r)-3-(5,6-difluoro-1H-benzo[d]imidazol-1-yl)bicyclo[3.1.0]hexan-6-yl)propanamide] | < 200 nM
CC[C@@H](NC(=O)c1ccc(C#N)cc1)[C@H]1[C@@H]2CC(N=[N+]=[N-])C[C@@H]21 (stereo partly drawn) [Compound 283, N-((1R)-1-((1R,5S,6r)-3-azidobicyclo[3.1.0]hexan-6-yl)propyl)-4-cyanobenzamide] | < 200 nM
CC[C@@H](NC(=O)c1ccc(Cl)cc1)[C@H]1[C@@H]2C[C@@H](Nc3cc(Cl)ccc3[N+](=O)[O-])C[C@@H]21 [Compound 284, 4-chloro-N-((R)-1-((1R,3S,5S,6r)-3-((5-chloro-2-nitrophenyl)amino)bicyclo[3.1.0]hexan-6-yl)propyl)benzamide] | < 200 nM
CC[C@@H](NC(=O)c1ccc(Cl)cc1)[C@H]1[C@@H]2C[C@H](c3ccnc4ccc(F)cc34)C[C@@H]21 [Compound 286, 4-chloro-N-((R)-1-((1R,3R,5S,6r)-3-(6-fluoroquinolin-4-yl)bicyclo[3.1.0]hexan-6-yl)propyl)benzamide] | < 200 nM
CCOC(=O)C(C(=O)OCC)[C@@H]1C[C@@H]2[C@H](C1)[C@H]2[C@@H](CC)NC(=O)c1ccc(Cl)cc1 [Compound 290, diethyl 2-((1R,3S,5S,6r)-6-((R)-1-(4-chlorobenzamido)propyl)bicyclo[3.1.0]hexan-3-yl)malonate] | < 200 nM
CC[C@@H](NC(=O)c1ccc(Cl)cc1)[C@H]1[C@@H]2C[C@@H](C(CO)CO)C[C@@H]21 [Compound 291, 4-chloro-N—((R)-1-((1R,3S,5S,6r)-3-(1,3-dihydroxypropan-2-yl)bicyclo[3.1.0]hexan-6-yl)propyl)benzamide] | 200 to 2000 nM
CC[C@@H](NC(=O)c1ccc(Cl)cc1)[C@H]1[C@@H]2C[C@@H](c3cnn(C4CC4)c3)C[C@@H]21 [Compound 292, 4-chloro-N—((R)-1-((1R,3S,5S, 6r)-3-(1-cyclopropyl-1H-pyrazol-4-yl)bicyclo[3.1.0]hexan-6-yl)propyl)benzamide] | < 200 nM
CC[C@@H](NC(=O)c1ccc(C#N)cc1)[C@H]1[C@@H]2C[C@@H](n3c(C)nc4ccc(C#N)cc43)C[C@@H]21 [Compound 293, 4-cyano-N-((R)-1-((1R,3S,5S,6r)-3-(6-cyano-2-methyl-1H-benzo[d]imidazol-1-yl)bicyclo[3.1.0]hexan-6-yl)propyl)benzamide] | 200 to 2000 nM
CC[C@@H](NC(=O)c1ccc(C#N)cc1)[C@H]1[C@@H]2C[C@@H](n3c(C)nc4ccc(Cl)cc43)C[C@@H]21 [Compound 294, N-((R)-1-((1R,3S,5S,6r)-3-(6-chloro-2-methyl-1H-benzo[d]imidazol-1-yl)bicyclo[3.1.0]hexan-6-yl)propyl)-4-cyanobenzamide] | < 200 nM
CC[C@@H](NC(=O)c1ccc(C#N)cc1)[C@H]1[C@@H]2C[C@@H](n3cc(C4CCOC4)nn3)C[C@@H]21 (stereo partly drawn) [Compound 295, 4-cyano-N-((1R)-1-((1R,3S,5S,6r)-3-(4-(tetrahydrofuran-3-yl)-1H-1,2,3-triazol-1-yl)bicyclo[3.1.0]hexan-6-yl)propyl)benzamide] | 200 to 2000 nM
C[C@@H](NC(=O)c1ccc(C#N)cc1)[C@H]1[C@@H]2C[C@H](O)C[C@@H]21 [Compound 296, 4-cyano-N-((R)-1-((1R,3R,5S,6r)-3-hydroxybicyclo[3.1.0]hexan-6-yl)ethyl)benzamide] | > 5000 nM
C[C@@H](NC(=O)c1ccc(C#N)cc1)[C@H]1[C@@H]2C[C@@H](O)C[C@@H]21 [Compound 297, 4-cyano-N-((R)-1-((1R,3S,5S,6r)-3-hydroxybicyclo[3.1.0]hexan-6-yl)ethyl)benzamide] | > 5000 nM
C[C@@H](C(=O)Nc1ccc(Cl)cc1)[C@H]1[C@@H]2C[C@@H](n3cnc4cc(F)c(F)cc43)C[C@@H]21 [Compound 298, (R)-N-(4-chlorophenyl)-2-((1R,3S,5S,6r)-3-(5,6-difluoro-1H-benzo[d]imidazol-1-yl)bicyclo[3.1.0]hexan-6-yl)propanamide] | < 200 nM
C[C@H](C(=O)Nc1ccc(Cl)cc1)[C@H]1[C@@H]2C[C@@H](n3cnc4cc(F)c(F)cc43)C[C@@H]21 [Compound 299, (S)-N-(4-chlorophenyl)-2-((1R,3R,5S,6r)-3-(5,6-difluoro-1H-benzo[d]imidazol-1-yl)bicyclo[3.1.0]hexan-6-yl)propanamide] | < 200 nM
